Assay results from US5834453A, “Methods for the manufacture and use of antimicrobial sterol conjugates” (Lehigh University, priority 1997, dated 1998).
Values after ≈ are worked out from the molar mass of the structure shown.

What was measured:
P. aeruginosa (2853) = experiment: MIC, micro-broth dilution; format: cell-based; settings: Pseudomonas aeruginosa, 24 h, read-out: ANTIMICROBIAL ACTIVITY (MIC)
Method: (§1) The antimicrobial activity of the compounds according to the present invention were compared with the results obtained for squalamine as reported in Proc. Nat. Acad. Sci. USA 90:1354 (1993), supra, the disclosure of which is incorporated in toto herein. The data reported in the following table is the minimum inhibitory concentration (MIC) required for complete inhibition of microbial growth. The MIC was determined utilizing known micro-broth dilution methods in which inocula of 10^6 /ml of the test organism were incubated in 0.5× trypticase soy broth at 35° C. for 24 hours. MIC's were also tested under various pH conditions, with calcium chloride or magnesium chloride, or with immobilized horse serum.
(§2) The numbers in parentheses contained in the table correspond to accession numbers with the American Type Culture Collection (reference strains were either obtained from the American Type Culture Collection or from the Microbiology Laboratory at Memorial Sloan-Kettering Cancer Center; Bacterial strains were maintained on Columbia 5% sheep blood agar plates, and fungi were maintained on Sabouraud Dextrose agar plates).

E. coli (25922) = experiment: MIC, micro-broth dilution; format: cell-based; settings: Escherichia coli, 35° C., 24 hours, read-out: ANTIMICROBIAL ACTIVITY (MIC)
Method: as §1, §2

S. aureus (29213) = experiment: MIC, micro-broth dilution; format: cell-based; settings: Staphylococcus aureus, 24 h, read-out: ANTIMICROBIAL ACTIVITY (MIC)
Method: as §1, §2

S. aureus (25923) = experiment: MIC, micro-broth dilution; format: cell-based; settings: Staphylococcus aureus, 35° C., 24 hours, read-out: ANTIMICROBIAL ACTIVITY (MIC)
Method: as §1, §2

S. epidermidis (12228) = experiment: MIC, micro-broth dilution; format: cell-based; settings: Staphylococcus epidermidis, 35° C., 24 hours, read-out: ANTIMICROBIAL ACTIVITY (MIC)
Method: as §1, §2

S. marcescens (13880) = experiment: MIC, micro-broth dilution; format: cell-based; settings: Serratia marcescens, 24 h, read-out: ANTIMICROBIAL ACTIVITY (MIC)
Method: as §1, §2

P. vulgaris (13315) = experiment: MIC, micro-broth dilution; format: cell-based; settings: Proteus vulgaris, 35° C., 24 hours, read-out: ANTIMICROBIAL ACTIVITY (MIC)
Method: as §1, §2

C. albicans (90028) = experiment: MIC, micro-broth dilution; format: cell-based; settings: Candida albicans, 35° C., 24 hours, read-out: ANTIMICROBIAL ACTIVITY (MIC)
Method: as §1, §2

C. neoformans (M68979) = experiment: MIC, micro-broth dilution; format: cell-based; settings: Cryptococcus neoformans, 24 h, read-out: ANTIMICROBIAL ACTIVITY (MIC)
Method: as §1, §2

[1] = Hemolytic activity, minimal hemolytic concentration (MHC); format: cell-based, sheep; settings: for MCC at 24 h: sheep, red blood cells;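 as to MCC: MCC here is the minimal hemolytic concentration (MHC)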
Method: Hemolytic activity of the squalamine mimics according to the present invention were also studied by incubating sheep red blood cells for 24 hours at 37° C. in saline (final concentration of 0.5%) with or without respective concentrations of the squalamine mimics. The minimal hemolytic concentration (MHC) was determined as the lowest concentration of a mimic that raised visible hemolysis.

A. fumigatus (H1120) = experiment: MIC, micro-broth dilution; format: cell-based; settings: Aspergillus fumigatus, 35° C., 24 hours, read-out: ANTIMICROBIAL ACTIVITY (MIC)
Method: as §1, §2

S. aureus (H20809) = experiment: MIC, micro-broth dilution; format: cell-based; settings: Staphylococcus aureus, 24 h, read-out: ANTIMICROBIAL ACTIVITY (MIC)
Method: as §1, §2

E. cloacae (13047) = experiment: MIC, micro-broth dilution; format: cell-based; settings: Enterobacter cloacae, 35° C., 24 hours, read-out: ANTIMICROBIAL ACTIVITY (MIC)
Method: as §1, §2

S. pneumoniae (6305) = experiment: MIC, micro-broth dilution; format: cell-based; settings: Streptococcus pneumoniae, 35° C., 24 hours, read-out: ANTIMICROBIAL ACTIVITY (MIC)
Method: as §1, §2

A. fumigatus (H29709) = experiment: MIC, micro-broth dilution; format: cell-based; settings: Aspergillus fumigatus, 35° C., 24 hours, read-out: ANTIMICROBIAL ACTIVITY (MIC)
Method: as §1, §2

P. aeruginosa (10145) = experiment: MIC, micro-broth dilution; format: cell-based; settings: Pseudomonas aeruginosa, 35° C., 24 hours, read-out: ANTIMICROBIAL ACTIVITY (MIC)
Method: as §1, §2

S. pyrogenes (19615) = experiment: MIC, micro-broth dilution; format: cell-based; settings: 24 h, read-out: ANTIMICROBIAL ACTIVITY (MIC)
Method: as §1, §2

S. agalactiae (13813) = experiment: MIC, micro-broth dilution; format: cell-based; settings: Streptococcus agalactiae, 35° C., 24 hours, read-out: ANTIMICROBIAL ACTIVITY (MIC)
Method: as §1, §2

E. faecalis (29212) = experiment: MIC, micro-broth dilution; format: cell-based; settings: Enterococcus faecalis, 35° C., 24 hours, read-out: ANTIMICROBIAL ACTIVITY (MIC)
Method: as §1, §2

C. neoformans (90012) = experiment: MIC, micro-broth dilution; format: cell-based; settings: Cryptococcus neoformans, 24 h, read-out: ANTIMICROBIAL ACTIVITY (MIC)
Method: as §1, §2

E. faecium (T6480-9) = experiment: MIC, micro-broth dilution; format: cell-based; settings: Enterococcus faecium, 35° C., 24 hours, read-out: ANTIMICROBIAL ACTIVITY (MIC)
Method: as §1, §2

K. pneumoniae (13883) = experiment: MIC, micro-broth dilution; format: cell-based; settings: Klebsiella pneumoniae, 24 h, read-out: ANTIMICROBIAL ACTIVITY (MIC)
Method: as §1, §2

SMILES	MIC (P. aeruginosa (2853))	MIC (E. coli (25922))	MIC (S. aureus (29213))	MIC (S. aureus (25923))	MIC (S. epidermidis (12228))	MIC (S. marcescens (13880))	MIC (P. vulgaris (13315))	MIC (C. albicans (90028))	MIC (C. neoformans (M68979))	MIC (A. fumigatus (H1120))	MIC (S. aureus (H20809))	MIC (E. cloacae (13047))	MIC (S. pneumoniae (6305))	MIC (A. fumigatus (H29709))	MIC (P. aeruginosa (10145))	MIC (S. pyrogenes (19615))	MIC (S. agalactiae (13813))	MIC (E. faecalis (29212))	MIC (C. neoformans (90012))	MIC (E. faecium (T6480-9))	further results
C[C@H](C(=O)NCCCNCCCCNCCCN)[C@H]1CC[C@H]2[C@@H]3CC=C4C[C@@H](O)CC[C@]4(C)[C@H]3CC[C@]12C [SM-1, 23,24-Bisnor-3β-ol-5-cholenic acid 3-ol spermine conjugate]	1.56 mg/L (≈ 2.94 µM)	12.5 mg/L (≈ 23.5 µM)	6.25 mg/L (≈ 11.8 µM)	3.13 mg/L (≈ 5.9 µM)	1.56 mg/L (≈ 2.94 µM)	> 100 mg/L	25 mg/L (≈ 47.1 µM)	100 mg/L (≈ 188 µM)	6.25 mg/L (≈ 11.8 µM)	–	–	–	–	–	–	–	–	–	–	–	minimal hemolytic concentration (MHC) at 24 h ([1]; sheep red blood cells, 24 hours at 37° C. in saline): 100 µg/mL
C[C@H](C(=O)NCCNCCNCCN)[C@H]1CC[C@H]2[C@@H]3CC=C4C[C@@H](O)CC[C@]4(C)[C@H]3CC[C@]12C [SM-5]	25 mg/L (≈ 52.7 µM)	100 mg/L (≈ 211 µM)	100 mg/L (≈ 211 µM)	50 mg/L (≈ 105 µM)	25 mg/L (≈ 52.7 µM)	> 100 mg/L	> 100 mg/L	> 100 mg/L	> 100 mg/L	> 100 mg/L	> 100 mg/L	> 100 mg/L	> 100 mg/L	> 100 mg/L	25 mg/L (≈ 52.7 µM)	6.25 mg/L (≈ 13.2 µM)	> 100 mg/L	> 100 mg/L	> 100 mg/L	> 100 mg/L	MIC (K. pneumoniae (13883)): > 100 mg/L; MCC at 24 h [1]: > 100 µg/mL
C[C@H](CCC(=O)NCCCNCCCCNCCCN)[C@H]1CC[C@H]2[C@@H]3CC[C@@H]4C[C@H](OS(=O)(=O)O)CC[C@]4(C)[C@H]3C[C@H](OS(=O)(=O)O)[C@]12C [SM-8]	25 mg/L (≈ 33.9 µM)	> 100 mg/L	25 mg/L (≈ 33.9 µM)	25 mg/L (≈ 33.9 µM)	25 mg/L (≈ 33.9 µM)	> 100 mg/L	50 mg/L (≈ 67.8 µM)	100 mg/L (≈ 136 µM)	50 mg/L (≈ 67.8 µM)	> 100 mg/L	25 mg/L (≈ 33.9 µM)	> 100 mg/L	50 mg/L (≈ 67.8 µM)	> 100 mg/L	100 mg/L (≈ 136 µM)	6.25 mg/L (≈ 8.48 µM)	50 mg/L (≈ 67.8 µM)	> 100 mg/L	50 mg/L (≈ 67.8 µM)	100 mg/L (≈ 136 µM)	MIC (K. pneumoniae (13883)): 50 mg/L (≈ 67.8 µM); MCC at 24 h [1]: > 100 µg/mL
